Data published in ChEMBL document CHEMBL5236669, “Identification of pyrimidinyl piperazines as non-iminosugar glucocerebrosidase (GCase) pharmacological chaperones” (Bioorg Med Chem Lett, 2023).
In brackets after ≈: the same amount, converted by molar mass.

Experiments:
[1] = Metabolic stability in human liver microsomes assessed as intrinsic clearance; assay type: ADME, Microsome; conditions: read-out: CLH
LLC-PK1 = test: Corrected flux ratio of permeability in pig LLC-PK1 cells overexpressing MDR1 to pig LLC-PK1 cells; assay type: ADME, cell-based, Sus scrofa
[2] = Solubility of the compound in PBS; assay type: physicochemical
[3] = target: Lysosomal acid glucosylceramidase (Homo sapiens, UniProt P04062, N409S); test: Chaperone activity at GCase N370S GBA mutant in patient derived fibroblast cell using 4-methylumbelliferyl-beta-D-glucopyranoside as substrate assessed as substrate cleavage by measuring concentration required for maximal response incubated for 5 days by fluorescence based assay
Lysosomal acid glucosylceramidase, sequence (P04062 40-536 N409S limits assumed): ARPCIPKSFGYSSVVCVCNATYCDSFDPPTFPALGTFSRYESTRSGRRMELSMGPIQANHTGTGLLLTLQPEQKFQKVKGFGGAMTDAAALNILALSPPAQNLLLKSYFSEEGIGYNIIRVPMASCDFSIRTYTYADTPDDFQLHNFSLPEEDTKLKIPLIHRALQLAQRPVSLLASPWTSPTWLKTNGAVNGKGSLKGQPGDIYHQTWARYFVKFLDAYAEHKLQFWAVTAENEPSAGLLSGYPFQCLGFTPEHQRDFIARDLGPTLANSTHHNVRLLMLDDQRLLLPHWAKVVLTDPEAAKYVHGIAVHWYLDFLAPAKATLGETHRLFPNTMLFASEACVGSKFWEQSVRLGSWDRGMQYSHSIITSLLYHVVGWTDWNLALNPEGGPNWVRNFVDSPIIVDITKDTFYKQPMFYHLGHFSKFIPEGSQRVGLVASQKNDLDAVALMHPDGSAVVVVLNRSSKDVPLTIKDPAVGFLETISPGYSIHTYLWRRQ

| Compound | EC50 [3] | other results |
| --- | --- | --- |
| Cc1cc(N2CCN(C(=O)c3cc(-c4ccccc4)nc4c3cnn4C(C)C)CC2)nc(C(C)C)n1 | 90 nM | CLint scaled [1]: 0.341 mL/min/kg; Ratio (LLC-PK1): 1.26; solubility [2]: 3 µM (≈ 1.45 µg/mL) |
| Cc1cc(N2CCN(C(=O)c3ccccc3Cl)CC2)nc(N2CCCC2)n1 | 63 nM | – |
| Cc1ccccc1C(=O)N1CCN(c2nc(N3CCCC3)nc3c2CCC3)CC1 | 30 nM | – |
| Cc1ccccc1C(=O)N1CCN(c2nc(N3CCCC3)nc(C)c2C)CC1 | 250 nM | – |
| Cc1ccccc1C(=O)N1CCN(c2nc(N3CCCC3)ncc2C)CC1 | 120 nM | – |
| Cc1cc(N2CCN(C(=O)c3ccccc3C)CC2)nc(N2CCC(F)(F)C2)n1 | 1400 nM | – |
| Cc1cc(N2CCN(C(=O)c3ccc(Cl)cc3)CC2)nc(N2CCCC2)n1 | 40 nM | – |
| Cc1cc(N2CCN(C(=O)c3ccncc3)CC2)nc(N2CCCC2)n1 | 6800 nM | – |
| Cc1cc(N2CCN(C(=O)c3ccccc3F)CC2)nc(N2CCCC2)n1 | 170 nM | – |
| Cc1cc(N2CCN(C(=O)c3ccccc3C)CC2)nc(N2CCOCC2)n1 | 5200 nM | – |
| Cc1cc(N2CC3CN(C(=O)c4ccccc4C)CC3C2)nc(N2CCCC2)n1 (configuration not stated) | 660 nM | – |
| Cc1ccccc1C(=O)N1CCN(c2cc(CO)nc(N3CCCC3)n2)CC1 | 220 nM | – |
| Cc1cc(N2CCN(C(=O)c3ccccc3C)CC2)nc(N2CCCCCC2)n1 | 29 nM | – |
| Cc1cc(N2CCN(C(=O)c3ccccc3C)CC2)nc(N2CCC2)n1 | 440 nM | – |
| Cc1cc(N2CCN(C(=O)c3ccc(-c4ccccc4)cc3)CC2)nc(N2CCCC2)n1 | 58 nM | – |
| Cc1cc(N2CCN(C(=O)c3ccccc3)CC2)nc(N2CCCC2)n1 | 72 nM | – |
| Cc1cc(N2CCN(C(=O)c3ccccc3C)CC2)nc(N2CCCCC2)n1 | 170 nM | – |
| Cc1cc(N2CCN(C(=O)c3ccccc3C)CC2)nc(C(C)C)n1 | 150 nM | – |
| Cc1cc(N2CCN(C(=O)c3cnccn3)CC2)nc(N2CCCC2)n1 | 5300 nM | – |

| Compound | EC50 [3] | other results |
| --- | --- | --- |
| Cc1cc(N2CCN(C(=O)c3ccc(C(C)(C)C)cc3)CC2)nc(N2CCCC2)n1 | – | CLint scaled [1]: 0.172 mL/min/kg; solubility [2]: 68 µM (≈ 27.7 µg/mL) |
| Cc1cc(N2CCN(C(=O)C3CCCCC3)CC2)nc(N2CCCC2)n1 | 360 nM | – |
| CC(=O)N1CCN(c2cc(C)nc(N3CCCC3)n2)CC1 | 7100 nM | – |
| Cc1ccc(C(=O)N2CCN(c3cc(C)nc(N4CCCC4)n3)CC2)cc1 | 70 nM | – |
| Cc1ccccc1C(=O)N1CCN(c2ccnc(N3CCCC3)n2)CC1 | 680 nM | – |
| CC(C)(C)c1ccc(C(=O)N2CCN(c3nc(N4CCCC4)nc4c3COC4)CC2)cc1 | 150 nM | – |
| Cc1cccc(C(=O)N2CCN(c3cc(C)nc(N4CCCC4)n3)CC2)c1 | 130 nM | – |
| Cc1ccccc1C(=O)N1CCN(c2cc(C(F)(F)F)nc(N3CCCC3)n2)CC1 | > 25000 nM | – |
| Cc1cc(N2CCN(C(=O)Cc3ccccc3)CC2)nc(N2CCCC2)n1 | 460 nM | – |
| Cc1cc(N2CCCN(C(=O)c3ccccc3C)CC2)nc(N2CCCC2)n1 | 1800 nM | – |
| CC(C)(C)c1ccc(C(=O)N2CCN(c3nc(N4CCCC4)nc4c3CCC4)CC2)cc1 | – | solubility [2]: 2 µM (≈ 0.867 µg/mL) |
| Cc1cc(N2CC3(CN(C(=O)c4ccccc4C)C3)C2)nc(N2CCCC2)n1 | 2100 nM | – |
| Cc1ccccc1C(=O)N1CCN(c2nc(N3CCCC3)nc3c2COC3)CC1 | 540 nM | – |
| Cc1cc(N2CCN(C(=O)c3ccccc3C(F)(F)F)CC2)nc(N2CCCC2)n1 | 100 nM | – |
| Cc1ccccc1C(=O)N1CCN(c2nc(N3CCCC3)nc3ccccc23)CC1 | 79 nM | CLint scaled [1]: 0.789 mL/min/kg; Ratio (LLC-PK1): 2.19; solubility [2]: 85 µM (≈ 34.1 µg/mL) |
| Cc1cc(N2CCN(C(=O)c3ccccc3C)CC2)nc(N2CCCC2)n1 | 75 nM | CLint scaled [1]: 0.104 mL/min/kg; Ratio (LLC-PK1): 1.38; solubility [2]: 94 µM (≈ 34.4 µg/mL) |
| Cc1cc(N2CCN(C(=O)c3ccccc3C)CC2)nc(N(C)C)n1 | 630 nM | – |
| Cc1ccccc1C(=O)N1CCN(c2nc(N3CCCC3)nc3c2COCC3)CC1 | 410 nM | – |
